Reference: ChEMBL document CHEMBL1201862, “PubChem BioAssay data set” (2004)
Structures can show the parent of a compound that is named as a salt. Calls of active or inactive are those of the source.

How the values were obtained:
[1] = Luminescence Cell-Based Dose Response to Identify Activators of 5'UTR Stem-Loop Driven Prion Protein mRNA Translation in H4-C Neuroglioblastoma Cells. [Related pubchem assays: 1829 (Project Summary), 1814 (Primary HTS)]; format: functional
H4 = assay: Luminescence Cell-Based Dose Response HTS to Identify Activators of 5'UTR Stem-Loop Driven Prion Protein mRNA Translation in H4 Neuroglioblastoma Cells. [Related pubchem assays: 1829 (Project Summary), 1814 (Primary HTS)]; format: functional; conditions: Homo sapiens
[2] = Luminescence Cell-Based Dose Response HTS to Identify Activators of Luciferase Translation or Activity in H4 […] Cells. [Related pubchem assays: 1829 (Project Summary), 1814 (Primary HTS)]; format: functional
[3] = Luminescence Cell-Based Dose Confirmation to Identify Activators of 5'UTR Stem-Loop Driven Alpha-Synuclein mRNA Translation in H4 Neuroglioblastoma Cells. [Related pubchem assays: 1829 (Project Summary), 1814 (Primary HTS)]; format: functional
[4] = Luminescence Cell-Based Dose Response to Identify Activators of Luciferase Translation or Activity in H4-C Neuroglioblastoma Cells. [Related pubchem assays: 1829 (Project Summary), 1814 (Primary HTS)]; format: functional
[5] = Luminescence Cell-Based Dose Confirmation HTS to Identify Activators of 5'UTR Stem-Loop Driven Alpha-Synuclein mRNA Translation in H4 Neuroglioblastoma Cells. [Related pubchem assays: 1829 (Project Summary), 1814 (Primary HTS)]; format: functional
[6] = target: Mitogen-activated protein kinase 10 (Homo sapiens, UniProt P53779); assay: Dose response biochemical screening assay for inhibitors of c-Jun N-Terminal Kinase 3 (JNK3). [Related pubchem assays: 746 ]
[7] = target: Protein-tyrosine kinase 2-beta (Homo sapiens, UniProt Q14289);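 also: potency of inhibitors of PYK2 kinase phosphorylation of poly-GT substrate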
[8] = Vero E6 cell cytotoxicity, dose response, cytotoxicity control for non-replicating M. tuberculosis project, secondary assay (AID 492998); format: functional, VeroE6; conditions: Vero C1008
[9] = DRD fibroblast viability loss – cell-based, non-viral oncogenic, luminescence, dose response (AID 1934); format: functional; conditions: Homo sapiens
BJ [10] = assay: BJ-TERT fibroblast viability loss – cell-based, RAS-independent, luminescence, dose response (AID 1933); format: functional; conditions: Homo sapiens
BJ [11] = assay: BJ-TERT-LT-ST fibroblast viability loss – cell-based, RAS-independent, luminescence, dose response (AID 1935); format: functional; conditions: Homo sapiens;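 also: BJ fibroblasts immortalized with TERT plus LT and ST oncogenes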
[12] = THP-1 cell cytotoxicity, dose response, cytotoxicity control for non-replicating M. tuberculosis project (AID 489025); format: functional
INS1 = assay: INS-1E survival protection against cytokine death – cell-based, luminescence, retest, dose response (AID 449756); format: functional; conditions: Rattus norvegicus;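 also: cell death triggered by IL-1 beta plus TNF-alpha plus IFN-gamma mixture; protective hits raise ATP signal compared with cytokine alone wells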
[13] = microbe, parasite or virus in culture; format: functional; conditions: Mycobacterium tuberculosis
[14] = target: T1, Microphthalmia-associated transcription factor (Homo sapiens, UniProt O75030); assay: reducers of TRPM1 reporter luminescence, concentration series – cell-based, SK-MEL-5, cherry-picked, set 3, MITF inhibitor project, dose response (AID 493073); format: functional;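 also: SK-MEL-5 melanoma cells with luciferase driven by the MITF target TRPM1 promoter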
T1 sequence (O75030 whole entry): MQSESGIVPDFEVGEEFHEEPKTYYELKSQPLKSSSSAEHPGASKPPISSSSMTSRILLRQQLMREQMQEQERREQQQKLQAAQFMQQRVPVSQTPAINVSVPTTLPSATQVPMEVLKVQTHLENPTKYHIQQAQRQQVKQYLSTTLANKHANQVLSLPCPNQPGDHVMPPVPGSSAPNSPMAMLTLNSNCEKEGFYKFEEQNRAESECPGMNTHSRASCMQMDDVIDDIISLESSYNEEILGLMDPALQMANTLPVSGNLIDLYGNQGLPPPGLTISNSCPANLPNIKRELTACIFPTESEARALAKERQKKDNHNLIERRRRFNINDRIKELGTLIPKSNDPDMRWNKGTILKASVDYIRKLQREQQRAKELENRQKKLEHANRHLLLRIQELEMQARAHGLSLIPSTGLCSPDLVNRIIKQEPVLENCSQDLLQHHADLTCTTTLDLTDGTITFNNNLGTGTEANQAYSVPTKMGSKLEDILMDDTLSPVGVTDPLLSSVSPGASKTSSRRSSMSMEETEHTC

BJ [15] = assay: cells; format: functional, cell-based; conditions: Homo sapiens
[16] = HepG2 cell cytotoxicity, dose response, cytotoxicity control for non-replicating M. tuberculosis project (AID 489018); format: functional; conditions: Mycobacterium tuberculosis
[17] = cytotoxicity toward HT-29 cells – cell-based, CellTiter-Glo luminescence, IC50, dose response (AID 1117330); format: functional
[18] = cytotoxicity toward Colo320 cells – cell-based, CellTiter-Glo luminescence, IC50, dose response (AID 1117334); format: functional; conditions: COLO 320
[19] = SNU-C1 cell viability reduction, dose response, CellTiter-Glo luminescence (AID 1117323); format: functional, cell-based
[20] = CellTiter-Glo luminescence survival assay, SW480 colon tumor line, concentration-response curve, half-maximal inhibitory concentration (AID 1117338); format: functional
[21] = cytotoxicity toward HCT116 cells – cell-based, CellTiter-Glo luminescence, IC50, dose response (AID 1117332); format: functional; conditions: HCT-116
[22] = HCT116 cell viability decrease, GSK3B pretreatment – CellTiter-Glo, IC50, dose response (AID 1117339); format: functional; conditions: HCT-116
[23] = Reduced DLD-1 viability, concentration-response, CellTiter-Glo luminescence (AID 1117352); format: functional
[24] = RKO cell viability reduction, dose response, CellTiter-Glo luminescence (AID 1117322); format: functional

Mitogen-activated protein kinase 10, sequence (P53779 whole entry): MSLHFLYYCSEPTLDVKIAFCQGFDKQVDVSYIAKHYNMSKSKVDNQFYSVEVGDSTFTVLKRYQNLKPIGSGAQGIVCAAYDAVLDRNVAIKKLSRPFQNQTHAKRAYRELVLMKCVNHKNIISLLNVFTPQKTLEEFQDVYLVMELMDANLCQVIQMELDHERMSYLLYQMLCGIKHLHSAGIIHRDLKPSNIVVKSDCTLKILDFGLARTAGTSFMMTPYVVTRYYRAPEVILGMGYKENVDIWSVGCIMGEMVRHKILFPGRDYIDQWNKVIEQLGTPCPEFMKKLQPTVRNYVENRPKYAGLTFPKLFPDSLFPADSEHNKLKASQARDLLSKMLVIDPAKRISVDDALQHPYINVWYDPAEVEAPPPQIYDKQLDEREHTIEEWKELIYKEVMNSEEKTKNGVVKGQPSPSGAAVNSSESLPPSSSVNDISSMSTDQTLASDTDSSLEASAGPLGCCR
Protein-tyrosine kinase 2-beta, sequence (Q14289 whole entry): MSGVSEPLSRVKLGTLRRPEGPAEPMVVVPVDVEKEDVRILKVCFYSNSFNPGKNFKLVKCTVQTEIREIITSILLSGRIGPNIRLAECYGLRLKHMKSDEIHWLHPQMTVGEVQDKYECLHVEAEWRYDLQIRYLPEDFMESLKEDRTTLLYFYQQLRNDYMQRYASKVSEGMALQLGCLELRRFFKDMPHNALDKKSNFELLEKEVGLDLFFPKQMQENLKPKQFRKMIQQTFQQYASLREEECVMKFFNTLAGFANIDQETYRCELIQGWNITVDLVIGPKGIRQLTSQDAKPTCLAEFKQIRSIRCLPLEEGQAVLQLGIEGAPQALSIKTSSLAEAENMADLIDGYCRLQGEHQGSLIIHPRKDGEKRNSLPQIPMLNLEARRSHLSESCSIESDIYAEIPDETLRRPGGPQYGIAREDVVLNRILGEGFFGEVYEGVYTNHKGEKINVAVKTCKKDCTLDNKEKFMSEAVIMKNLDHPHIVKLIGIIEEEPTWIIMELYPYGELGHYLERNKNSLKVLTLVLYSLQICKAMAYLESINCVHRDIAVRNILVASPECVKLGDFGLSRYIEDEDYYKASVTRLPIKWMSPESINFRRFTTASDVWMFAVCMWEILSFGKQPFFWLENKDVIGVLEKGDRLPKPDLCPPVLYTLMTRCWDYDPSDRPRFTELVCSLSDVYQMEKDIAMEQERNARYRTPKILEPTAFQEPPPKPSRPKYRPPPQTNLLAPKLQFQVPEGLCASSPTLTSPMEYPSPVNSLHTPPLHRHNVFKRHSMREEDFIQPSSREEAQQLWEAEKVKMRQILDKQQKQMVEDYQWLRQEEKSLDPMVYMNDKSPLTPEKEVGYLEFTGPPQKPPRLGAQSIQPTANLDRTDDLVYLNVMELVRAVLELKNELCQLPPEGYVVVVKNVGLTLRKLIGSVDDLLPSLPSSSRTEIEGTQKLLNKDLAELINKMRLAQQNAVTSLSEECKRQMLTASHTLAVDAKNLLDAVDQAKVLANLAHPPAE

Cc1nc2ccc(NC(=O)c3ccc(Cl)s3)cc2s1
EC50 [1]: 0.443 µM (active) | EC50 (H4): 12.5 µM (active) | EC50 [2]: < 0.1 µM (active) | EC50 [3]: 0.363 µM (active) | EC50 [4]: 0.491 µM (active) | EC50 [5]: < 0.1 µM (active)

CC(=O)c1c(C)[nH]c(C(=O)OCn2nnc3ccccc3c2=O)c1C
IC50 [6]: 34.2 µM (not active)

COc1cc(C2Nc3ccc4ncccc4c3C3=C2C(=O)CCC3)cc(OC)c1O (stereo unspecified)
IC50 [7]: 12.7 µM (not active)

O=C(Nc1nccs1)c1ccc(Br)o1
IC50 [6]: > 31 µM (not active)

CCOc1ccc(OCc2ccc(C(=O)N/N=C(\C)c3ccccn3)cc2)cc1
CC50 [8]: 3.37 µM (active) | EC50 [9]: 25.4 µM (inconclusive) | EC50 (BJ [10]): 0.75 µM (active) | EC50 (BJ [11]): 3.92 µM (inconclusive) | CC50 [12]: 1.37 µM (active) | AC50 (INS1): 0.712 µM (active) | CC50 [13]: 4.15 µM (active) | AC50 [14]: 3.64 µM (active) | EC50 (BJ [15]): 1.25 µM (active) | CC50 [16]: 5.83 µM (active)

COc1ccc(C2C(=O)c3ccccc3C2=O)c(OC)c1
EC50 [1]: > 12 µM (not active) | EC50 [2]: < 0.1 µM (inconclusive) | EC50 [3]: 0.104 µM (inconclusive) | EC50 [4]: > 12 µM (not active)

O=C(CCCN1CCC(O)(c2cccc(C(F)(F)F)c2)CC1)c1ccc(F)cc1 [TRIFLUPERIDOL HYDROCHLORIDE]
IC50 [17]: > 20 µM (inactive) | IC50 [18]: > 20 µM (inactive) | IC50 [19]: > 20 µM (inactive) | IC50 [20]: > 20 µM (inactive) | IC50 [21]: > 20 µM (inactive) | IC50 [22]: > 20 µM (inactive) | IC50 [23]: > 20 µM (inactive) | IC50 [24]: > 20 µM (inactive)
